Assays:
[1] = molecular target: T1, insulin disulfides (heterodimeric insulin) (Homo sapiens, UniProt P01308); assay: single-turnover insulin protein disulfide reduction assay (RP-HPLC of insulin heterodimer peak); format: biochemical; details: relative GSH:TRX concentrations comparable to the airway, pH 8, FIG. 1
T1 construct: fully disulfide-bonded heterodimeric insulin
Protocol: Left side of FIG. 1—polyacrylamide gel electrophoresis of native human thioredoxin-1 (TRX). Lane 1: Molecular weight standards; Lane 2: Oxidized TRX; Lane 3: Oxidized TRX following reaction with dithiothreitol (DTT); Lane 4: Oxidized TRX following reaction with reduced glutathione (GSH); Lane 5: Oxidized TRX following reaction with GSH followed by DTT. Right side of FIG. 1—TRX was oxidized by exposure to ambient air for one week then incubated with either DTT or GSH at pH 8 for 1 hour followed by purification over a size exclusion column to remove unreacted free DTT or GSH after which the TRX was collected and used in a single-turnover insulin protein-disulfide reduction assay. […] After 30 min, 60 min and 120 minutes aliquots were taken and diluted with 0.1% TFA and 17 uM (final) iodoacetic acid and analyzed over RP-HPLC. Absorbance was monitored at 214 nm and the peak area of the insulin heterodimer fraction was determined at each time point to quantify TRX protein disulfide-reducing activity.
C35STRX was oxidized and Lys residues were conjugated to an azido-PEG linker. The conjugated material was then reduced and tested for molecular weight using SDS-PAGE (FIG. 5D) and MALDI-TOF (FIG. 5E) and activity assessed using a single-turnover insulin protein disulfide reduction assay. […]

[2] = inhalation vs. i.v.; cited from earlier work

T1 sequence (P01308 25-54 limits assumed): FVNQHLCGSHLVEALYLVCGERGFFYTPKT
T1 sequence (P01308 90-110 limits assumed): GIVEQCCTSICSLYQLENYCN

SMILES | restoration of insulin disulfide bond reduction activity to oxidized TRX [1] | systemic exposure level by inhalation delivery relative to equivalent i.v. [2] [%]
N[C@@H](CCC(=O)N[C@@H](CS)C(=O)NCC(=O)O)C(=O)O [GSH, reduced glutathione, reference compound] | capable of restoring insulin disulfide bond reduction activity to oxidized TRX | 
CN[C@H](CC(C)C)C(=O)N[C@H]1C(=O)N[C@@H](CC(N)=O)C(=O)N[C@H]2C(=O)N[C@H]3C(=O)N[C@H](C(=O)N[C@H](C(=O)O)c4cc(O)cc(O)c4-c4cc3ccc4O)[C@H](O)c3ccc(c(Cl)c3)Oc3cc2cc(c3O[C@@H]2O[C@H](CO)[C@@H](O)[C@H](O)[C@H]2O[C@H]2C[C@](C)(N)[C@H](O)[C@H](C)O2)Oc2ccc(cc2Cl)[C@H]1O [vancomycin] |  | ~50

Reference: US20210213134A1, “THIOL-BASED MULTIVALENT DRUG DELIVERY COMPOSITIONS” (ORPRO THERAPEUTICS, INC., priority 2018, published 2021)
